The NIST ThermoML archive (doi:10.1021/je100290a)

Assays:
[1] = 101 kPa, Liquid
[2] = xn = mol fraction of the nth substance listed; conditions: 101 kPa, Liquid

NCCN [ethane-1,2-diamine]
[1]
Conditions | mass density [kg/m3] | viscosity [mPa·s]
298.15 K | 894.5 | 1.276
303.15 K | 890.8 | 1.211
308.15 K | 885.6 | 1.107

OCCO [1,2-ethanediol] + NCCN
[2], x2 = 0
Conditions | mass density [kg/m3] | viscosity [mPa·s]
298.15 K | – | 16.8
303.15 K | 1105.8 | 13.4
308.15 K | – | 11.33

NCCN [ethane-1,2-diamine] + OCCO
[2]
Conditions | mass density, 298.15 K [kg/m3] | mass density, 303.15 K [kg/m3] | mass density, 308.15 K [kg/m3] | viscosity, 298.15 K [mPa·s] | viscosity, 303.15 K [mPa·s] | viscosity, 308.15 K [mPa·s]
x1 = 0.1027 | 1096.6 | 1089.8 | 1084.4 | 22.28 | 17.6 | 14.05
x1 = 0.1541 | 1086.6 | 1080.9 | 1073.8 | 25.54 | 20.56 | 16.93
x1 = 0.2052 | 1078.4 | 1072.4 | 1062.4 | 28.37 | 22.44 | 18.21
x1 = 0.2561 | 1068.5 | 1062.2 | 1053.8 | 30.73 | 23.15 | 19.28
x1 = 0.3066 | 1061.4 | 1053.5 | 1042.9 | 31.46 | 23.66 | 19.2
x1 = 0.3568 | 1051 | 1042.8 | 1033.8 | 30.7 | 22.85 | 18.5
x1 = 0.4078 | 1040.4 | 1034.8 | 1026.6 | 28.32 | 21.31 | 17
x1 = 0.508 | 1018.5 | 1013.9 | 1007.2 | 20.17 | 15.18 | 11.89
x1 = 0.5579 | 1006.6 | 1000.7 | 994.7 | 16.06 | 12.27 | 8.772
x1 = 0.6065 | 995.4 | 988.3 | 981.8 | 12.51 | 9.748 | 6.254
x1 = 0.6573 | 983.1 | 976.2 | 968.7 | 9.028 | 7.157 | 4.674
x1 = 0.7071 | 970.1 | 964.5 | 956.1 | 6.882 | 5.681 | 4.008
x1 = 0.756 | 957.3 | 951.7 | 944.4 | 5.154 | 4.177 | 3.547
x1 = 0.8051 | 946.2 | 938.8 | 931.7 | 3.787 | 3.154 | 2.683
x1 = 0.8542 | 933.4 | 924.9 | 917.5 | 3.199 | 2.552 | 2.128
x1 = 0.9003 | 919.1 | 913.4 | 907.2 | 2.273 | 1.92 | 1.713
x1 = 0.9438 | 908.8 | 903.4 | 897.5 | 1.8 | 1.561 | 1.422
x1 = 1 | 894.5 | 890.8 | 885.6 | 1.276 | 1.211 | 1.107

OCCO [1,2-ethanediol]
[1]
Conditions | mass density [kg/m3] | viscosity [mPa·s]
298.15 K | – | 16.8
303.15 K | 1105.8 | 13.4
308.15 K | – | 11.33
